Experiments:
[1] = system: HHD×ERG^pb/pb mice; conditions: mouse, in vivo; SD
[2] = system: HHD mice; conditions: mean from 3 mice ± SD
[3] = system: metastatic melanoma patients; conditions: in combination with IL-2, metastatic melanoma patients; cited from earlier work

QLWQFLLEL [ERG295]
ERG295 responsive T-cells [1]: 305 ± 49 | ERG295 responsive cells per million splenocytes [1]: 177 ± 51 per million splenocytes | ERG295 responsive cells per million splenocytes ([2]; HHD mice around 16 weeks old, 1 immunization): 275 ± 45 per million splenocytes | ERG295 responsive T-cells ([2]; HHD mice, 3 immunizations at 7-day intervals): 405 ± 120

gp100:209:217(210M): HLA-A*0201 restricted melanoma epitope (IMDQVPFSV; UniProt P40967 209-217, looked up, variant T210M)
Median overall survival [3]: significantly improved median overall survival

Reference: paper PMC3864132 (Cancer immunology, immunotherapy : CII, 2013)
